In patent US9180115B2, “Cyclohexylamines” (Asana Biosciences, LLC, priority 2011, dated 2015):
Several values for one entry are separate records, joined by “and”; a condition that tells them apart may be missing. Identical values can stand only once. Like-named read-outs stand apart in the source and are kept apart here.

Legend:
[1] = tested on: Male Sprague Dawley (SD) rats; assay: In vivo assay of mechanical nociception (rat pinch model, perisciatic injection)
[2] = tested on: sodium channel response in hTRPV1-N1E115 cells; assay: FLIPR membrane potential assay of sodium channel response in hTRPV1-N1E115 cells with or without heat (47° C.) activation; type: cell-based; conditions: for hTRPV1-N1E Nav 0.1 mM (% inhibition) 25° C. / hTRPV1-N1E Nav 1 mM (% inhibition) 25° C.: 25° C. (no heat activation); for hTRPV1-N1E Nav 0.1 mM (% inhibition) 47° C. / hTRPV1-N1E Nav 1 mM (% inhibition) 47° C.: 47° C. (heat activated); for IC50: read-out: hTRPV1-N1E IC50 (μM) 47° C.
Source text: In one embodiment, a modified FLIPR® (Fluorometric Imaging Plate Reader) based assay system was developed which is capable of discriminating between non-specific versus hTRPV1-mediated entry of test compounds. Advantageously, the assay system utilizes heat activated opening of hTRPV1 channels followed by an assessment of internal sodium channel block. The assay allows a permanently charged compound to selectively enter through opened hTRPV1 channels and that compound's potency in inhibiting sodium channels from the cytoplasm side of the same cell can be assessed and quantified.
The test compounds are diluted in the Assay Buffer and added to each well of a specific 384-well ‘compound plate’, which serves as a source plate for compound addition using the FLIPR® platform. The concentration of compounds in the compound-plate was adjusted to achieve the desired final concentration when added to the cells in the ‘cell-plate’. After completion of the dye incubation period, the dye loaded cell-plates and the compound source plates are inserted into the FLIPR® Tetra device with a 384 FLIPR® tip box (Molecular Devices, Inc.) according to manufacturer's instructions. The compounds are robotically added to the dye loaded cell-plates using software integral to the FLIPR® Tetra instrument.
Immediately following compound addition, hTRPV1 is activated, in one of the duplicate cell plates, by heating. Specifically, entire multi-well plate containing the compound-cells mixture is incubated at 47° C. for 10 minutes, after which they are returned to room temperature (about 25° C.) for a further 30 minutes. Heat activation of hTRPV1 was omitted from the replicate cell plate which was simply maintained at room temperature for the entire 40 minutes.
A membrane potential response is elicited in the dye- and compound-loaded cells by the addition of veratridine which is a known sodium channel ‘agonist’. As illustrated in an example herein, an agonist plate containing veratridine (Sigma) is prepared in advance and is inserted into suitable devices such as, e.g., the FLIPR® TETRA device for a “2nd addition” as instructed by the manufacturer. The concentration of veratridine in the ‘agonist plate’ was adjusted to achieve a final concentration of 100 μM when added to the cells in the cell-plate. Final concentrations of veratridine greater or lesser than 100 μM may also be used but the signal measured by the FLIPR® TETRA device or another suitable device may vary accordingly.
The exposure of the cells in the cell-plate to veratridine induces sodium channels in the cells to open and the resulting ion flux produces a membrane potential depolarization that is detected as a fluorescence signal by the FLIPR® Tetra Device. The activity of test compounds is determined by their ability to attenuate the veratridine-induced fluorescence signal, the most promising compounds are those that show an enhanced activity in the heat-activated cell plate over the non-heat-activated cell plate. This differential activity reflects enhanced compound uptake via the heat activated and open hTRPV1 channels and rests on the fact that sodium channel block requires test compounds to act from the cytoplasmic side of the cell membrane.
In vitro assays were developed for assessing the inhibition of sodium channel response with compounds following stimulation by heat (47° C.) in cells expressing hTRPV1.
(v) Membrane potential Assay to Assess Sodium Channel Function in hTRPV1-Expressing Cells • Cells were plated at 5000 per 50 μL [DMEM+10% FBS+300 μg/mL H\hygromycin] per well, in a 384 clear bottom poly-D-lysine coated plate and incubated at 37° C. and 5% CO2 for 48 hours. On the day of the assay, media were discarded gently and 30 μL of the dye [FMP blue dye was prepared in assay buffer] per well was added and dye-loading was allowed to proceed for 20 min at room temperature. […]

[3] = molecular target: T1, human Nav1.5 sodium channel (Homo sapiens, UniProt Q14524); assay: FLIPR membrane potential assay in hNav1.5-HEK293 cells; type: cell-based
T1 construct: host or cells: HEK-293
T1 sequence (Q14524 whole entry): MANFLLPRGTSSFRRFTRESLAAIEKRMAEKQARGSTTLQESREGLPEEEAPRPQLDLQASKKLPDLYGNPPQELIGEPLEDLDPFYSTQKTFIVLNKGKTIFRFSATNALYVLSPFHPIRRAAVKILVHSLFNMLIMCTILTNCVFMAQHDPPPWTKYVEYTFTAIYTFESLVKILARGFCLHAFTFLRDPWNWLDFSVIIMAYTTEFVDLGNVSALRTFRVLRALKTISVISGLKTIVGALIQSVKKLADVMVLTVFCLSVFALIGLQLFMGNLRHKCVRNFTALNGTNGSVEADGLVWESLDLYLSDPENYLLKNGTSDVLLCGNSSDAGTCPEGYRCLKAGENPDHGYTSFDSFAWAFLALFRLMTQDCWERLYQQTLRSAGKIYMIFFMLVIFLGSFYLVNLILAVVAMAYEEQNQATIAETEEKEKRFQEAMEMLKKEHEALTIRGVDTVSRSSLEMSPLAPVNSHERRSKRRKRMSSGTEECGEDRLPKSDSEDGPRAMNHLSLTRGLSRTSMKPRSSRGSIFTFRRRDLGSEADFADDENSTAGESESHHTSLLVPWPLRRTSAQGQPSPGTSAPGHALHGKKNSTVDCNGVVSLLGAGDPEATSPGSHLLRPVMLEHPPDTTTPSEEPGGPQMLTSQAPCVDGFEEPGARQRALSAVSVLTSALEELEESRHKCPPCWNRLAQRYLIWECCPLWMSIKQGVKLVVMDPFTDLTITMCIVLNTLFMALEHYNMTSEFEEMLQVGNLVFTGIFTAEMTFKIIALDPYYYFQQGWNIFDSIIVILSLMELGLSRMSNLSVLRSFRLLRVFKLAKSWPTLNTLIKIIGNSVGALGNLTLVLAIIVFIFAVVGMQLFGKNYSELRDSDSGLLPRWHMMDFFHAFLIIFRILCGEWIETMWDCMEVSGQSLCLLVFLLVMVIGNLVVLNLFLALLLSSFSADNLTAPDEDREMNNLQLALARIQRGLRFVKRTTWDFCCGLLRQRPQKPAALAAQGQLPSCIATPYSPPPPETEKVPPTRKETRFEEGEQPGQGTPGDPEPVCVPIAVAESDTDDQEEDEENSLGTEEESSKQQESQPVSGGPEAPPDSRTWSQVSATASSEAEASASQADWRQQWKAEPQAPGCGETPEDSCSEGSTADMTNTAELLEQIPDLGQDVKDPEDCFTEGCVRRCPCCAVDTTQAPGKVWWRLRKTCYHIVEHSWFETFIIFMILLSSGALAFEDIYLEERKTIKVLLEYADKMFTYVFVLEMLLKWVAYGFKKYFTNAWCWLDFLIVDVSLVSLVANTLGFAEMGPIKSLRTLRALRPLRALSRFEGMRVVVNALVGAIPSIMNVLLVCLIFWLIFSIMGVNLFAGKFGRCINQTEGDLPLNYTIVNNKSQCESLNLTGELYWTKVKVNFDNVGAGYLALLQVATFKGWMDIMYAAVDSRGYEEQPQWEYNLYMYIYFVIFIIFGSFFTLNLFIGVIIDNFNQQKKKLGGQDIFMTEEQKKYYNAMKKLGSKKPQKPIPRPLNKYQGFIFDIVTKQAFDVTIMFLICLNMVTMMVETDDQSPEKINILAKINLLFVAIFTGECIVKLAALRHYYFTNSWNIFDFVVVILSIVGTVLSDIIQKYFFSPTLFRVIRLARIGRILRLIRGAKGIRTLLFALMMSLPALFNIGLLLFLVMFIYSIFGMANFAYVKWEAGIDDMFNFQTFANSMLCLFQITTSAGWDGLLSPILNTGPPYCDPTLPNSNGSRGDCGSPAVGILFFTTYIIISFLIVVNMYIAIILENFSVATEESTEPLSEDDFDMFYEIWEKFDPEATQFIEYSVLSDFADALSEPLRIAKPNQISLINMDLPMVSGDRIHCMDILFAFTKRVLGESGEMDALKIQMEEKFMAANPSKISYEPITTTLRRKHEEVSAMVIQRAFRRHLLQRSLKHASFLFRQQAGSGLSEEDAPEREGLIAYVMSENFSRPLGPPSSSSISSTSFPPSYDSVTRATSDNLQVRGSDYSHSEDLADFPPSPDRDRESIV
Protocol: C. Method for Assessing the Extent of Inhibition of Sodium Channel Response with Compounds in hNav1.5-HEK293 Cells.
The following assay was used to assess the tendency of the test compounds to block the dominant cardiac sodium channel isoform. Nav1.5 sodium channels are known to be permeable to quaternary sodium channel blockers such as QX-314 and, thus, the assay was performed in the absence of a chemical TRPV1 agonist.
The hNav1.5-HEK-293 cells (CreaCell, France, a human embryonic kidney cell line expressing the human Nav1.5 sodium channel) were cultured in Growth medium (containing 1×DMEM (Gibco)+10% FBS (PAA Gold)+2% glutamine 100 mM (Gibco)+1% penicillin 10,000 U/mL streptomycin 10,000 μg/mL (Invitrogen)+1.2 mg/mL Geneticin® G418 (Invitrogen)) in 75 mL cell bind flasks (Corning). The following steps were followed exactly as mentioned. The spent medium was discarded and the cells rinsed once with PBS-1×. Accutase® (1-2 mL; PAA) solution was added. The plate was placed on a 37° C. warming incubator 3-5 minutes. As soon as cells are detached, 37° C. complete medium (9 mL) was added. The cell suspension is drawn into a sterile pipette and cells homogenized gently to dissociate cell aggregates. The cells were counted using a hemocytometer with Blue Trypan and then centrifuged 5 minutes at 400 g. The cells can be amplified or maintained by seeding […] in a T75 flask (final volume: 15 mL). 8000 cells in 50 μL Growth medium was added to each well of 384-well, clear bottomed, sterile poly-D-lysine coated plates with lid (Greiner-bio one) inside the laminar air-flow. The plates were incubated at 37° C. and 5% CO2 in a CO2 incubator (Thermo) for 48 hours.
On the day of the assay, cells were washed with Assay buffer, which was prepared using the components and amounts in the following Table 5. pH was adjusted to 7.4 with NaOH, volume made up to 500 mL with Milli-Q® water.
Assay Buffer was added to the cells and incubated at rt (25° C.) for 10 minutes. The compounds were diluted in assay buffer. The compounds were added and incubated at rt (25° C.) for 10 minutes. Red FMP Dye (MDC) was added to the cells and the plate was incubated at rt (25° C.) for 30 minutes. Veratridine stock (20 mM; Sigma) was prepared in DMSO; veratridine (final concentration of 30 μM) in assay buffer was added to each well of the cell seeded plates in the FLIPR and read taken for 10 minutes. The following table provides data illustrating the sodium channel activity of the test compounds in response to the presence or absence of heat stimulation in cells expressing hTRPV1. The compounds were tested for differential activity at 25° C. and 47° C. and at two test concentrations.

[4] = test compound 0.5%, lidocaine 2%, injection 100 μL
[5] = read-out: HEK Nav 1.5 IC50 (μM) (AVG)
[6] = test compound 0.5%, lidocaine 2%, injection 200 μL

SMILES | IC50 ([2]; 47° C.) [µM] | hTRPV1-N1E Nav 0.1 mM (% inhibition) 25° C. [2] | hTRPV1-N1E Nav 0.1 mM (% inhibition) 47° C. [2] | IC50 [3, 5] [µM] | Average Time of Analgesia [1, 6] | IC50 ([3]; HEK Nav 1.5 IC50 (μM) (AVG)) [µM] | further results
Cc1cc(C)c(C(=O)OC(C)C[N+](C)(C)C2CCCCC2)c(C)c1.[I-] (stereo not drawn) [Example 1, N,N-dimethyl-N-[2-((2,4,6-trimethylbenzoyl)oxy)propyl]cyclohexanaminium iodide] | 10 to 100 | 13 (N = 4) % | 73 (N = 4) % | 240 | – | – | Average Time of Analgesia [1, 4]: 7 h; hTRPV1-N1E Nav 1 mM (% inhibition) 25° C. [2]: 53 (N = 4) %; hTRPV1-N1E Nav 1 mM (% inhibition) 47° C. [2]: 92 (N = 4) %
CC(C[N+](C)(C)C1CCCCC1)OC(=O)c1ccccc1C(C)C.[I-] (stereo not drawn) [Example 2, N-[2-((2-isopropylbenzoyl)oxy)propyl]-N,N-dimethylcyclohexanaminium iodide] | 10 to 100 | 23 (N = 4) % | 77 (N = 4) % | 188 | 12 h | – | hTRPV1-N1E Nav 1 mM (% inhibition) 25° C. [2]: 78 (N = 4) %; hTRPV1-N1E Nav 1 mM (% inhibition) 47° C. [2]: 89 (N = 4) %
C[C@@H](C[N+](C)(C)C1CCCCC1)OC(=O)c1ccc(C(C)(C)C)cc1.[Br-] [Example 5, (S)—N-[2-((4-(tert-butyl)benzoyl)oxy)propyl]-N,N-dimethylcyclohexanaminium bromide] | 10 to 100 | 45 (N = 4) % | – | – | – | 305 | paw withdrawal vocalization force ([1]; 0.45% solution with 2% lidocaine, FIG. 1): remained at cut-off for the duration of the experiment; Average Time of Analgesia ([1]; test compound 0.2%, lidocaine 2%, injection 200 μL): 2 h; Average Time of Analgesia ([1]; test compound 0.3%, lidocaine 2%, injection 200 μL): 24 h; Average Time of Analgesia ([1]; test compound 0.4%, lidocaine 2%, injection 200 μL): 44 h; Average Time of Analgesia ([1]; test compound 0.45%, lidocaine 2%, injection 200 μL): >64 h
Cc1cccc(C)c1C(=O)OC(C)C[N+](C)(C)C1CCCCC1.[I-] (stereo not drawn) [Example 6, N-[2-((2,6-Dimethylbenzoyl)oxy)propyl]-N,N-dimethylcyclohexanaminium iodide] | – | – | – | 684 | 14 h and 10 h | – | analgesic effects in the absence of lidocaine ([1]; absence of lidocaine): analgesic effects of significant duration; Average Time of Analgesia ([1]; test compound 0.5%, lidocaine 0%, injection 200 μL): 5 h; Average Time of Analgesia [1, 4]: 8 h; hTRPV1-N1E Nav (% inhibition) 25° C., 0.5 mM ([2]; 0.5 mM, 25° C.): 24 (N = 2, %; hTRPV1-N1E Nav (% inhibition) 47° C., 0.5 mM ([2]; 0.5 mM, 47° C.): 80 (N = 2, %; hTRPV1-N1E Nav (% inhibition) 25° C., 5 mM ([2]; 5 mM, 25° C.): 58 (N = 2, %; hTRPV1-N1E Nav (% inhibition) 47° C., 5 mM ([2]; 5 mM, 47° C.): 92 (N = 2, %; hTRPV1-N1E IC50 (μM) 47° C. ([2]; 47° C.): B ′; inhibition at 10 min, 0.5 mM ([3]; human, hNav1.5-HEK293 cells (HEK-293 cells expressing human Nav1.5), pH 7.4, 0.5 mM, read-out: HEK Nay 1.5% inh. @ 0.5 mM): 30%; inhibition at 10 min, 1.5 mM ([3]; human, hNav1.5-HEK293 cells (HEK-293 cells expressing human Nav1.5), pH 7.4, 1.5 mM, read-out: HEK Nav 1.5% inh. @ 1.5 mM): 68%
CC(C[N+](C)(C)C1CCCCC1)OC(=O)c1ccc(C(C)(C)C)cc1.[I-] (stereo not drawn) [Example 12, N-[2-((4-(tert-Butyl)benzoyl)oxy)propyl]-N,N-dimethyl-cyclohexanaminium iodide] | 10 to 100 | 25 (N = 4) % | 84 (N = 4) % | – | 0.5 h | 134 | hTRPV1-N1E Nav 1 mM (% inhibition) 25° C. [2]: 17 (N = 4) %; hTRPV1-N1E Nav 1 mM (% inhibition) 47° C. [2]: 88 (N = 4) %
C[C@@H](C[N+](C)(C)C1CCCCC1)OC(=O)c1ccc(C(C)(C)C)cc1.[I-] [Example 46, (S)-N-[2-((4-(tert-butyl)benzoyl)oxy)propyl]-N,N-dimethylcyclo-hexanaminium iodide] | – | 40 (N = 4) % | – | – | 24 h | 232 | –
C[C@H](C[N+](C)(C)C1CCCCC1)OC(=O)c1ccc(C(C)(C)C)cc1.[I-] [Example 47, (R)-N-[2-((4-(tert-butyl)benzoyl)oxy)propyl]-N,N-dimethylcyclo-hexanaminium iodide] | 10 to 100 | 54 (N = 4) % | – | – | 24 h | 255 | –
C[C@H](C[N+](C)(C)C1CCCCC1)OC(=O)c1ccc(C(C)(C)C)cc1.[Br-] [Example 48, (R)-N-[2-((4-(tert-butyl)benzoyl)oxy)propyl]-N,N-dimethylcyclo-hexanaminium bromide] | 10 to 100 | 48 (N = 4) % | – | – | – | 252 | –

Further lines, with some results ahead:

IC50 ([2]; 47° C.) [µM] | SMILES | hTRPV1-N1E Nav 0.1 mM (% inhibition) 25° C. [2] | hTRPV1-N1E Nav 0.1 mM (% inhibition) 47° C. [2] | IC50 [3, 5] [µM] | Average Time of Analgesia [1, 6] | IC50 ([3]; HEK Nav 1.5 IC50 (μM) (AVG)) [µM] | further results
10 to 100 | CC(C[N+](C)(C)C1CCCCC1)OC(=O)c1sc2ccccc2c1Cl.[I-] (stereo not drawn) [Example 31, N-[2-((3-Chloro-benzo[b]thiophene-2-carbonyl)oxy)propyl]-N,N-dimethyl-cyclohexanaminium iodide] | 27 (N = 4) % | 94 (N = 4) % | 160 | – | – | –
10 to 100 | CC1CCC([N+](C)(C)CC(C)OC(=O)c2ccc(C(C)(C)C)cc2)CC1.[I-] (stereo not drawn) [Example 38, N-[2-((4-(tert-butyl)benzoyl)oxy)propyl]-N,N,4-trimethylcyclo-hexanaminium iodide] | 75 (N = 4) % | 95 (N = 4) % | 54 | – | – | –
10 to 100 | Cc1cc(C)c(C(=O)OC(C)C[N+](C)(C)C2CCC(C)CC2)c(C)c1.[I-] (stereo not drawn) [Example 39, N,N,4-Trimethyl-N-[2-((2,4,6-trimethyl-benzoyl)oxy)propyl] cyclohexanaminium iodide] | 41 (N = 4) % | 7 (N = 4) % | 89 | – | – | –
